# Experimental data as given in patent US12319726B2, “Method for treating CD40-mediated diseases” (CASE WESTERN RESERVE UNIVERSITY, priority 2008, dated 2025).
# Where a SMILES comes first, the peptide text is derived from it. [ ]: non-standard residue; d: D form.
# Test system: retinas subjected to I/R
# Test: Model of retinal ischemia/reperfusion (I/R), intravitreal peptide
# Format: in vivo, B6 mice
# Experimental: FIGS. 20(A-C) illustrate images and graphs showing ri CD40-TRAF2,3 blocking peptide protects against loss of ganglion cells and leukocyte infiltration in retinas subjected to I/R. One eye from each B6 and CD40^−/− mouse was subjected to I/R. Contralateral non-ischemic eye was used as control. Eyes subjected to I/R in B6 mice were treated intravitreously with or without ri control peptide, ri CD40-TRAF2,3 blocking peptide (both 1 μg) 30 min prior to increase in IOP. Eyes were collected 2 d after I/R. A marked decrease in the number of ganglion cells is observed in ischemic eyes from B6 treated with ri control peptide or vehicle (original magnification ×400). […] Arrowhead plus asterix identifies a PMN magnified in the inset (original magnification ×600). Scale bar, 50 μm. Number of ganglion cells per mm. Number of infiltrating leukocytes in the inner retina and vitreous per section. GCL=Ganglion cell layer; IPL=Inner plexiform layer; INL=Inner nuclear layer. OPL=Outer plexiform layer; ONL=Outer nuclear layer. Data shown represent Mean±SEM (9 mice per group). *P<0.05; **P<0.01; […].
# FIG. 21 illustrates graphs showing ri CD40-TRAF2,3 blocking peptide impairs upregulation of NOS2 and COX-2 in retinas subjected to I/R. One eye of each mouse was treated as above and subjected to I/R. Eyes were collected after 2 d. mRNA levels of NOS2 and COX-2 were assessed by quantitative real time PCR. One non-ischemic eye from a B6 mouse was given an arbitrary value of 1 and data are expressed as fold-increase compared to this animal. Data shown represent Mean±SEM (7-9 mice per group). ***P<0.001.
# FIGS. 22(A-B) illustrate graphs and images showing ri CD40-TRAF2,3 blocking peptide impairs upregulation of ICAM-1 and KC/CXCL1 in retinal endothelial cells from retinas subjected to I/R. One eye of each mouse was subjected to I/R. Eyes were collected after 2 d. mRNA levels of ICAM-1 and KC/CXCL1 were assessed by quantitative real time PCR. One non-ischemic eye from a B6 mouse was given an arbitrary value of 1 and data are expressed as fold-increase compared to this animal. Data shown represent Mean±SEM (7-9 mice per group). ***P<0.001. Retinal sections were incubated with Tomato Lectin (labels endothelial cells) plus either anti-ICAM-1 or anti-KC/CXCL1 Ab. Original magnification ×600. GCL=Ganglion cell layer; IPL=Inner plexiform layer; INL=Inner nuclear layer. Scale bar, 10 μm. 6 mice/group.
# FIG. 23 illustrates images showing ri CD40-TRAF2,3 blocking peptide impairs NOS2 and KC/CXCL1 upregulation in Müller cells from retinas subjected to I/R. Eyes from B6 mice were treated with control peptide or CD40-TRAF2,3 blocking peptide, subjected to I/R and collected after 2 d. Retinal sections were incubated with anti-Vimentin Ab (labels Müller cells) plus either anti-NOS2 or anti-KC/CXCL1 Ab. Protein expression at the level of Müller cells stalks. […]. Original magnification ×600. Scale bar, 10 μm. 6 mice/group.
# FIGS. 24(A-D) illustrate images and graphs showing ri CD40-TRAF2,3 blocking peptide protects against loss of ganglion neurons and inflammation when administered after retinal I/R. One eye from each B6 mouse was subjected to I/R. Non-ischemic eyes were used as controls. Eyes that were subjected to I/R received either ri control peptide or ri CD40-TRAF2,3 blocking peptide 90 min after increase in IOP. Eyes were collected 2 d after I/R. Administration of the blocking peptide protects against ganglion cell loss and infiltration by leukocytes (arrowhead). Original magnification ×400. Scale bar, 50 μm. Number of ganglion cells per mm. Number of leukocytes in the inner retina and vitreous per section. mRNA levels of ICAM-1, KC/CXCL1, NOS2 and COX-2 were assessed by quantitative real time PCR as above. Data shown represent Mean±SEM (7-9 mice per group). **P<0.01; ***P<0.001. GCL=Ganglion cell layer; IPL=Inner plexiform layer; INL=Inner nuclear layer. […]
# [1] = 1 μg intravitreal prior to I/R, 2 d, real time PCR
# [2] = peptide administered 90 min post-retinal ischemia, 2 d, mRNA
# [3] = prior to I/R, 2 d, immunohistochemistry
smiles,measurement,setting,value
"CC(C)C[C@@H](NC(=O)[C@@H](Cc1c[nH]cn1)NC(=O)CNC(=O)[C@@H](Cc1ccc(O)cc1)NC(=O)CNC(=O)[C@@H](CCCNC(=N)N)NC(=O)[C@@H](CCCCN)NC(=O)[C@@H](CCCCN)NC(=O)[C@@H](CCCNC(=N)N)NC(=O)[C@@H](CCCNC(=N)N)NC(=O)[C@@H](CCC(N)=O)NC(=O)[C@@H](CCCNC(=N)N)NC(=O)[C@@H](CCCNC(=N)N)NC(=O)[C@H](N)CCCNC(=N)N)C(=O)N[C@@H](C(=O)N[C@H](CCC(=O)O)C(=O)N[C@H](CCC(N)=O)C(=O)N[C@@H](C(=O)N[C@H](Cc1c[nH]cn1)C(=O)N[C@H](C)C(=O)N[C@H](C)C(=O)N[C@@H](C(=O)N[C@H](CC(N)=O)C(=O)O)[C@H](C)O)C(C)C)[C@H](C)O [ri CD40-TRAF2,3 blocking peptide, NH2-rrrqrrkkrgy ghlteqvhaatn-OH] (H-[dR][dR][dR][dQ][dR][dR][dK][dK][dR]G[dY]G[dH][dL][dT][dE][dQ][dV][dH][dA][dA][dT][dN]-OH)",COX-2 mRNA levels in retina,[1],impaired upregulation
same,ICAM-1 mRNA levels in retina,[1],significant reduction
same,KC/CXCL1 mRNA levels in retina,[1],significant reduction
same,NOS2 mRNA levels in retina,[1],impaired upregulation
same,PMN infiltration in the inner retina and vitreous,"1 μg intravitreal prior to I/R, 2 d after I/R",diminished inflammatory infiltrate
same,loss of ganglion cells,"1 μg intravitreal prior to I/R, eyes collected 2 d after I/R",significant attenuation in the loss of ganglion cells
same,leukocyte recruitment,"peptide administered 90 min post-retinal ischemia, 2 d",protected against
same,upregulation of COX-2,[2],protected against
same,upregulation of ICAM-1,[2],protected against
same,upregulation of KC/CXCL1,[2],protected against
same,upregulation of NOS2,[2],protected against
same,ganglion cell loss,"peptide administered 90 min post-retinal ischemia, eyes collected 2 d after I/R",protected against
same,expression of ICAM-1 in retinal endothelial cells,[3],decreased expression
same,expression of KC/CXCL1 in Müller cells,[3],impaired expression
same,expression of KC/CXCL1 in retinal endothelial cells,[3],decreased expression
same,expression of NOS2 in Müller cells,[3],impaired expression
